Tests used:
[1] = xn = mol fraction of the nth substance listed; settings: 101.3 kPa, Liquid
[2] = Liquid; for viscosity: 101.3 kPa; for mass density: 101.33 kPa

CCC(C)O (stereo not given) [butan-2-ol] + CCOC(=O)OCC
[1], x2 = 0
Settings	viscosity [mPa·s]
293.15 K	3.619
298.15 K	3.115
303.15 K	2.503
313.15 K	1.784

CCOC(=O)OCC [diethyl carbonate] + CCCO
[1]
Settings	viscosity [mPa·s]
293.15 K, x1 = 0.0504	1.9
293.15 K, x1 = 0.1007	1.662
293.15 K, x1 = 0.2008	1.325
293.15 K, x1 = 0.3019	1.115
293.15 K, x1 = 0.4004	0.998
293.15 K, x1 = 0.5039	0.921
293.15 K, x1 = 0.6031	0.877
293.15 K, x1 = 0.7007	0.84
293.15 K, x1 = 0.7999	0.808
293.15 K, x1 = 0.9132	0.786
293.15 K, x1 = 0.9531	0.785
293.15 K, x1 = 1	0.795
298.15 K, x1 = 0.0515	1.689
298.15 K, x1 = 0.0993	1.482
298.15 K, x1 = 0.2012	1.178
298.15 K, x1 = 0.3007	1.005
298.15 K, x1 = 0.4026	0.904
298.15 K, x1 = 0.5022	0.845
298.15 K, x1 = 0.6029	0.801
298.15 K, x1 = 0.7041	0.762
298.15 K, x1 = 0.8087	0.73
298.15 K, x1 = 0.9065	0.721
298.15 K, x1 = 0.9523	0.729
298.15 K, x1 = 1	0.749
303.15 K, x1 = 0.0464	1.494
303.15 K, x1 = 0.0963	1.315
303.15 K, x1 = 0.1968	1.062
303.15 K, x1 = 0.2981	0.907
303.15 K, x1 = 0.3987	0.818
303.15 K, x1 = 0.4958	0.771
303.15 K, x1 = 0.5991	0.732
303.15 K, x1 = 0.6967	0.703
303.15 K, x1 = 0.8063	0.678
303.15 K, x1 = 0.908	0.674
303.15 K, x1 = 0.9448	0.682
303.15 K, x1 = 1	0.699
313.15 K, x1 = 0.05	1.214
313.15 K, x1 = 0.1018	1.087
313.15 K, x1 = 0.2001	0.911
313.15 K, x1 = 0.3017	0.795
313.15 K, x1 = 0.3958	0.727
313.15 K, x1 = 0.504	0.674
313.15 K, x1 = 0.6009	0.642
313.15 K, x1 = 0.7032	0.624
313.15 K, x1 = 0.7998	0.61
313.15 K, x1 = 0.8997	0.608
313.15 K, x1 = 0.9468	0.612
313.15 K, x1 = 1	0.623

CCCO [propan-1-ol]
[2]
Settings	mass density [kg/m3]	viscosity [mPa·s]
293.15 K	–	2.198
298.15 K	799.5	1.97
303.15 K	–	1.707
313.15 K	–	1.361

CCCCCO [pentan-1-ol]
[2]
Settings	mass density [kg/m3]	viscosity [mPa·s]
293.15 K	–	3.979
298.15 K	810.9	3.347
303.15 K	–	2.932
313.15 K	–	2.256

CCCCO [butan-1-ol]
[2]
Settings	mass density [kg/m3]	viscosity [mPa·s]
293.15 K	–	2.941
298.15 K	805.9	2.62
303.15 K	–	2.255
313.15 K	–	1.754

CCOC(=O)OCC [diethyl carbonate] + CC(C)O
[1]
Settings	viscosity [mPa·s]
293.15 K, x1 = 0.0502	1.973
293.15 K, x1 = 0.1001	1.67
293.15 K, x1 = 0.203	1.27
293.15 K, x1 = 0.3012	1.073
293.15 K, x1 = 0.3954	0.962
293.15 K, x1 = 0.5021	0.886
293.15 K, x1 = 0.6035	0.841
293.15 K, x1 = 0.6976	0.811
293.15 K, x1 = 0.8048	0.794
293.15 K, x1 = 0.9129	0.796
293.15 K, x1 = 0.9529	0.799
293.15 K, x1 = 1	0.795
298.15 K, x1 = 0.049	1.766
298.15 K, x1 = 0.0987	1.501
298.15 K, x1 = 0.1978	1.135
298.15 K, x1 = 0.2945	0.94
298.15 K, x1 = 0.3925	0.836
298.15 K, x1 = 0.4925	0.788
298.15 K, x1 = 0.5939	0.763
298.15 K, x1 = 0.7004	0.74
298.15 K, x1 = 0.7979	0.719
298.15 K, x1 = 0.8967	0.717
298.15 K, x1 = 0.9504	0.726
298.15 K, x1 = 1	0.749
303.15 K, x1 = 0.0522	1.468
303.15 K, x1 = 0.099	1.277
303.15 K, x1 = 0.1944	1.009
303.15 K, x1 = 0.2913	0.864
303.15 K, x1 = 0.392	0.777
303.15 K, x1 = 0.4763	0.733
303.15 K, x1 = 0.5883	0.702
303.15 K, x1 = 0.6972	0.683
303.15 K, x1 = 0.7854	0.68
303.15 K, x1 = 0.889	0.684
303.15 K, x1 = 0.9488	0.69
303.15 K, x1 = 1	0.699
313.15 K, x1 = 0.0506	1.148
313.15 K, x1 = 0.0997	1.011
313.15 K, x1 = 0.2016	0.821
313.15 K, x1 = 0.303	0.71
313.15 K, x1 = 0.4008	0.661
313.15 K, x1 = 0.4969	0.634
313.15 K, x1 = 0.599	0.617
313.15 K, x1 = 0.7007	0.604
313.15 K, x1 = 0.8011	0.594
313.15 K, x1 = 0.903	0.596
313.15 K, x1 = 0.9511	0.605
313.15 K, x1 = 1	0.623

CC(C)O [propan-2-ol]
[2]
Settings	mass density [kg/m3]	viscosity [mPa·s]
293.15 K	–	2.386
298.15 K	780.9	2.098
303.15 K	–	1.763
313.15 K	–	1.325

CCC(C)O (stereo not given) [butan-2-ol]
[2]
Settings	mass density [kg/m3]	viscosity [mPa·s]
293.15 K	–	3.619
298.15 K	802.4	3.115
303.15 K	–	2.503
313.15 K	–	1.784

CCOC(=O)OCC [diethyl carbonate] + CCO
[1]
Settings	viscosity [mPa·s]
293.15 K, x1 = 0.0503	1.098
293.15 K, x1 = 0.0997	1.021
293.15 K, x1 = 0.198	0.906
293.15 K, x1 = 0.3006	0.835
293.15 K, x1 = 0.4031	0.792
293.15 K, x1 = 0.5031	0.77
293.15 K, x1 = 0.6063	0.761
293.15 K, x1 = 0.6898	0.755
293.15 K, x1 = 0.8066	0.759
293.15 K, x1 = 0.895	0.77
293.15 K, x1 = 0.945	0.776
293.15 K, x1 = 1	0.795
298.15 K, x1 = 0.0496	1.05
298.15 K, x1 = 0.0973	0.943
298.15 K, x1 = 0.1963	0.835
298.15 K, x1 = 0.2985	0.771
298.15 K, x1 = 0.398	0.728
298.15 K, x1 = 0.5057	0.714
298.15 K, x1 = 0.6032	0.708
298.15 K, x1 = 0.7035	0.703
298.15 K, x1 = 0.7999	0.702
298.15 K, x1 = 0.8989	0.714
298.15 K, x1 = 0.9283	0.721
298.15 K, x1 = 1	0.749
303.15 K, x1 = 0.0491	0.899
303.15 K, x1 = 0.0984	0.834
303.15 K, x1 = 0.1952	0.754
303.15 K, x1 = 0.2961	0.704
303.15 K, x1 = 0.3946	0.673
303.15 K, x1 = 0.4859	0.661
303.15 K, x1 = 0.5995	0.649
303.15 K, x1 = 0.6959	0.648
303.15 K, x1 = 0.7862	0.649
303.15 K, x1 = 0.8911	0.661
303.15 K, x1 = 0.9254	0.669
303.15 K, x1 = 1	0.699
313.15 K, x1 = 0.0499	0.777
313.15 K, x1 = 0.102	0.74
313.15 K, x1 = 0.2038	0.676
313.15 K, x1 = 0.3116	0.636
313.15 K, x1 = 0.4001	0.613
313.15 K, x1 = 0.4971	0.6
313.15 K, x1 = 0.6023	0.59
313.15 K, x1 = 0.7058	0.591
313.15 K, x1 = 0.8065	0.596
313.15 K, x1 = 0.9022	0.608
313.15 K, x1 = 0.9518	0.616
313.15 K, x1 = 1	0.623

CCCCCO [pentan-1-ol] + CCOC(=O)OCC
[1], x2 = 0
Settings	viscosity [mPa·s]
293.15 K	3.979
298.15 K	3.347
303.15 K	2.932
313.15 K	2.256

CO [methanol]
[2]
Settings	mass density [kg/m3]	viscosity [mPa·s]
293.15 K	–	0.591
298.15 K	786.6	0.553
303.15 K	–	0.514
313.15 K	–	0.45

CO [methanol] + CCOC(=O)OCC
[1], x2 = 0
Settings	viscosity [mPa·s]
293.15 K	0.591
298.15 K	0.553
303.15 K	0.514
313.15 K	0.45

CCCO [propan-1-ol] + CCOC(=O)OCC
[1], x2 = 0
Settings	viscosity [mPa·s]
293.15 K	2.198
298.15 K	1.97
303.15 K	1.707
313.15 K	1.361

Reference: the NIST ThermoML archive (doi:10.1021/je0341413)
